# Calls of active or inactive are those of the source. Rule as the data show it, for most assays here: active = IC50 of 10 µM or less and inactive = more.
# Experiments:
# [1] = target: T1, Neuropeptides B/W receptor type 1 (Homo sapiens, UniProt P48145); experiment: Fluorescence-based dose response cell-based high throughput screening assay to identify antagonists of the G-protein coupled receptor 7 (GPR7). [Related pubchem assays: 1952 (Screening assay (GPR7 antagonists).), 1880 (Summary AID.)]; assay type: functional
# T1 sequence (P48145 whole entry): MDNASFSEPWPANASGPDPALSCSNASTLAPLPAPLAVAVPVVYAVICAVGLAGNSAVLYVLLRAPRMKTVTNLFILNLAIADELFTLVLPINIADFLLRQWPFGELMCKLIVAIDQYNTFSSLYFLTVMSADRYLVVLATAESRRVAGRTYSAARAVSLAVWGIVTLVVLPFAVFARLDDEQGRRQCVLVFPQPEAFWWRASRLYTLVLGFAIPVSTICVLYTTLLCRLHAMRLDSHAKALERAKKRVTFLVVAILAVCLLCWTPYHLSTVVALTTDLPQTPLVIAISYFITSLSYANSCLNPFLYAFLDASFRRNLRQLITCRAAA
# [2] = target: T2, Neuropeptide Y receptor type 2 (Homo sapiens, UniProt P49146); experiment: NPY-Y2 antagonist potency, selectivity check, dose response, counter-screen for NPY-Y1 antagonist project, cell-based (AID 1278); assay type: functional
# T2 sequence (P49146 whole entry): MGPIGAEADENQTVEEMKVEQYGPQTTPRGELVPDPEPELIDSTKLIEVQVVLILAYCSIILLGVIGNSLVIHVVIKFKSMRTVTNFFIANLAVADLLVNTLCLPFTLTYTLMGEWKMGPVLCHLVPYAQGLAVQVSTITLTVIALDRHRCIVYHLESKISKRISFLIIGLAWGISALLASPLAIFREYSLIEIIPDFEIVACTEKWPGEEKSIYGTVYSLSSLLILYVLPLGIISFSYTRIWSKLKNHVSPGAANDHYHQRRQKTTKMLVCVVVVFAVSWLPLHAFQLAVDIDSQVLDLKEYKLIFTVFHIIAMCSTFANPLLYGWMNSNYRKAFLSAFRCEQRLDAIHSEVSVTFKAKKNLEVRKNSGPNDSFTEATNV
# [3] = target: Melanin-concentrating hormone receptor 1 (Homo sapiens, UniProt Q99705); experiment: Fluorescence-based counterscreen for antagonists of the G-protein coupled receptor 7 (GPR7): cell-based high throughput dose response assay to identify antagonists of the melanin-concentrating hormone receptor 1 (MCHR1).; assay type: functional
# [4] = target: T3, Neuropeptide Y receptor type 1 (Homo sapiens, UniProt P25929); experiment: NPY-Y1 receptor antagonist potency, dose response, cell-based (AID 1277); assay type: functional
# T3 sequence (P25929 whole entry): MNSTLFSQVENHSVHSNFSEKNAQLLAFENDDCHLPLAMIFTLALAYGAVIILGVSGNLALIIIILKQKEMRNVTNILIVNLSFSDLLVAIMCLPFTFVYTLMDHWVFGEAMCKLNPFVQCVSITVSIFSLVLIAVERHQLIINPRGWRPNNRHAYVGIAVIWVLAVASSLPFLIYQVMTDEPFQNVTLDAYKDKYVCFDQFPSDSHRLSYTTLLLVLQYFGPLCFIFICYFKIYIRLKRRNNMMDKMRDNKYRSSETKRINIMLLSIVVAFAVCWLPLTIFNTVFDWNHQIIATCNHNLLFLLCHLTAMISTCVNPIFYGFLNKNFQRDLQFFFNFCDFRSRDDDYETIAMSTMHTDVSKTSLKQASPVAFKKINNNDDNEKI
# [5] = target: T4, Estrogen receptor (Homo sapiens, UniProt P03372); experiment: potentiators of ERα–SRC-1 coactivator binding, dose response, biochemical, TR-FRET, ERα LBD (AID 737)
# T4 sequence (P03372 whole entry): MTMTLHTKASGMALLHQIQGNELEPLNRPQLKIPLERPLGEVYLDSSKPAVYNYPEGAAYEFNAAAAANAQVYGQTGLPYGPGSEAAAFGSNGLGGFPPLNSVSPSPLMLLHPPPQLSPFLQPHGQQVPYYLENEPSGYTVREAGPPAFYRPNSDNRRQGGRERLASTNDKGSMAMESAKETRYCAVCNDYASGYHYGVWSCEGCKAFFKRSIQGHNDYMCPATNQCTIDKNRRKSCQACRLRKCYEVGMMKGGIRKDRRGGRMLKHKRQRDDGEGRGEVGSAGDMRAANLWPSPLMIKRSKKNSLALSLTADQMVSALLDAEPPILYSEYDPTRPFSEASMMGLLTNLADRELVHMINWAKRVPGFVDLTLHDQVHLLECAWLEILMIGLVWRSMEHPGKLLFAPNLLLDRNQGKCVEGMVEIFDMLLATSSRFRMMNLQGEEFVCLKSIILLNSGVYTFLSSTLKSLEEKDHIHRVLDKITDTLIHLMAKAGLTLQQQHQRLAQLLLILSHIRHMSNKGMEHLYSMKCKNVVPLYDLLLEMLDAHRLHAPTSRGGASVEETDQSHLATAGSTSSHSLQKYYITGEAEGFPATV
# [6] = target: Sphingosine 1-phosphate receptor 4 (Homo sapiens, UniProt O95977); experiment: Fluorescence dose response cell-based high throughput screening assay for antagonists of the Sphingosine 1-Phosphate Receptor 4 (S1P4). [Related pubchem assays: 1524 (Confirmation in triplicates.), 1510 (Primary screen.)]; assay type: functional
# [7] = target: Sphingosine 1-phosphate receptor 1 (Homo sapiens, UniProt P21453); assay type: functional;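 also: Tango beta-arrestin reporter U2OS cells stimulated with S1P near its EC80; inhibitor potency meaning antagonism of receptor activation by the natural agonist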
# [8] = target: T5, Microphthalmia-associated transcription factor (Homo sapiens, UniProt O75030); experiment: TRPM1 promoter luciferase signal decrease, dose response, MITF inhibitor project, cell-based, SK-MEL-5, cherry-picked, set 3 (AID 493073); assay type: functional
# T5 sequence (O75030 whole entry): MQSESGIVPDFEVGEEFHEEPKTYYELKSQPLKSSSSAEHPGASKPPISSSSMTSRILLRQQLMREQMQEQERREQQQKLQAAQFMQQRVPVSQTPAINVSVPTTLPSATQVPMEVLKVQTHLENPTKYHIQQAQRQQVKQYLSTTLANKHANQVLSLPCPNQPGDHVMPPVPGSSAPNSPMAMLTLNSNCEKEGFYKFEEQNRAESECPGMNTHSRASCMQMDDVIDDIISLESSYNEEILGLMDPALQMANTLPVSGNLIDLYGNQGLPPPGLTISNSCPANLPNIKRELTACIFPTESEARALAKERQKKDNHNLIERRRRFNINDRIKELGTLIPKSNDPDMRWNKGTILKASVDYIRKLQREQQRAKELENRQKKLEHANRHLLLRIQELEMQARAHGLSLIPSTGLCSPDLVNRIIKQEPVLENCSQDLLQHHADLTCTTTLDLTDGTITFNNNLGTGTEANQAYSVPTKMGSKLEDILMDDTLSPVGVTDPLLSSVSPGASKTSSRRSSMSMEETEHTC
# [9] = target: T6, High affinity choline transporter 1 (Homo sapiens, UniProt Q9GZV3); experiment: CHT inhibitors, dose response, cell-based, 5-point CRC, membrane potential dye (AID 504840); assay type: functional
# T6 sequence (Q9GZV3 whole entry): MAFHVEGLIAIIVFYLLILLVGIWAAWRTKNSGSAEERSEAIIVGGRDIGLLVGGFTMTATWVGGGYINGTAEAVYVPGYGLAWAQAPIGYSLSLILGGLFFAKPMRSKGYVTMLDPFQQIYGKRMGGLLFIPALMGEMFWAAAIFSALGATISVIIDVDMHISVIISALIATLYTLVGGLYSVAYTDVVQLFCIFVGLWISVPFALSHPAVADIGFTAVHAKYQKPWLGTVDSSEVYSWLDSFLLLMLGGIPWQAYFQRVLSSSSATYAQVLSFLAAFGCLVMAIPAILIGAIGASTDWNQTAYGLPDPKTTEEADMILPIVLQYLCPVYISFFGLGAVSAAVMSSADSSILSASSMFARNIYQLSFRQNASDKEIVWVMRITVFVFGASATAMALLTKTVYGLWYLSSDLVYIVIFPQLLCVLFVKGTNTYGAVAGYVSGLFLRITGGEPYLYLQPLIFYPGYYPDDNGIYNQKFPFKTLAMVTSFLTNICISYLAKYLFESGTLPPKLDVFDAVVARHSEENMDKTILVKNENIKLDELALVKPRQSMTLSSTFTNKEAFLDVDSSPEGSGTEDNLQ
# [10] = target: T7, Interleukin-8 (Homo sapiens, UniProt P10145); experiment: Dose Response confirmation of uHTS small molecule hits for cystic fibrosis induced NFkb Inhibitors in a TNFa-induced IL8 counterscreen.; assay type: functional; details: read-out: IC50_Mean
# T7 sequence (P10145 whole entry): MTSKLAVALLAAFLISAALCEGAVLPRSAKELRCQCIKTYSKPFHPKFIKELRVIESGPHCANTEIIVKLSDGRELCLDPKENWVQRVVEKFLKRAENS
# [11] = target: T7, Interleukin-8; experiment: Dose Response confirmation of uHTS small molecule hits for cystic fibrosis induced NFkb Inhibitors in a PAF-induced IL8 counterscreen.; assay type: functional; details: read-out: IC50_Mean
# Chain of Sphingosine 1-phosphate receptor 1 (P21453 whole entry): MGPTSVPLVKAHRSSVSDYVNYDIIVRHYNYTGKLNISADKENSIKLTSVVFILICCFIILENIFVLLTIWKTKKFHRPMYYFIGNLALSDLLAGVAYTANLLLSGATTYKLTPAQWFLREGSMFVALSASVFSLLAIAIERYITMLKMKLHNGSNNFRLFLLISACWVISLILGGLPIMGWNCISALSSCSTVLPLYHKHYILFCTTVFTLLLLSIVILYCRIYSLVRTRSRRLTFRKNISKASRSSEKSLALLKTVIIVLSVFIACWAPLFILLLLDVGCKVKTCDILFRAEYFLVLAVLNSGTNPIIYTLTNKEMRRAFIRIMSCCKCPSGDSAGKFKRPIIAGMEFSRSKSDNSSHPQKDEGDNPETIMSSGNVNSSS
# Chain of Melanin-concentrating hormone receptor 1 (Q99705 whole entry): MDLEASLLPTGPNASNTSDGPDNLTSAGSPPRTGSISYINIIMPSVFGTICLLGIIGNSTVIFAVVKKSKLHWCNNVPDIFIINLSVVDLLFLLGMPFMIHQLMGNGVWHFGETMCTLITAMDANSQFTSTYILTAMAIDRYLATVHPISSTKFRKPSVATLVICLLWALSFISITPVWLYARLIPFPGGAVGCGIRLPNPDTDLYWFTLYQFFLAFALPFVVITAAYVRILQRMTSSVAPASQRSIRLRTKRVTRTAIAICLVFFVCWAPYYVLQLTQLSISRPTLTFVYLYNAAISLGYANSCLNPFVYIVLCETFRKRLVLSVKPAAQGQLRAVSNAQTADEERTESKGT
# Chain of Sphingosine 1-phosphate receptor 4 (O95977 whole entry): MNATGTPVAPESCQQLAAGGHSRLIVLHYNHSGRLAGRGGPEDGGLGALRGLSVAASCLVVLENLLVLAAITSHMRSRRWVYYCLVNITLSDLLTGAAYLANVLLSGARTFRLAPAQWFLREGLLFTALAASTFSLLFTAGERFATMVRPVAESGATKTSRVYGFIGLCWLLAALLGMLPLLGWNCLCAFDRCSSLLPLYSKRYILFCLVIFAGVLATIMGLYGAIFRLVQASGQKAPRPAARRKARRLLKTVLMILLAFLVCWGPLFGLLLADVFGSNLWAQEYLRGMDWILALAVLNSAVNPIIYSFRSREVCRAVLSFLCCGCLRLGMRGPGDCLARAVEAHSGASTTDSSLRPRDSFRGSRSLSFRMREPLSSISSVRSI
structure (smiles),measurement,setting,value
COc1ccc(-c2noc(CN3CCCCC3c3nccn3C)n2)cc1 (stereo unspecified),IC50,[1],> 43.8 µM (not active)
same,IC50,[2],> 35 µM (not active)
same,IC50,[3],> 43.8 µM (not active)
same,IC50,[4],> 35 µM (not active)
O=C1c2ccccc2C(=O)N1CCCc1nc2ccccc2c(=O)n1CCCn1ccnc1,EC50,[5],23.5 µM (active)
CN(CCC#N)C(=O)COC(=O)c1ccccc1C(=O)c1ccc(Cl)c([N+](=O)[O-])c1,IC50,[6],2.34 µM (active)
same,IC50,[7],9.72 µM (active)
same,AC50,[8],10.9 µM (active)
same,IC50,[9],7.81 µM (active)
same,IC50,[10],43 µM (inactive)
same,IC50,[11],0.967 µM (active)

# From ChEMBL document CHEMBL1201862, “PubChem BioAssay data set” (2004)
